Target: T1, GAC (Mus musculus, UniProt D3Z7P3)
T1 construct: plasmid (residues 72-603 for GAC, 72-674 for KGA); His-tag with thrombin cleavage site (N, cleaved yes); made in house; host or cells: pET23a vector
T1 sequence (D3Z7P3 72-603 isoform D3Z7P3-2): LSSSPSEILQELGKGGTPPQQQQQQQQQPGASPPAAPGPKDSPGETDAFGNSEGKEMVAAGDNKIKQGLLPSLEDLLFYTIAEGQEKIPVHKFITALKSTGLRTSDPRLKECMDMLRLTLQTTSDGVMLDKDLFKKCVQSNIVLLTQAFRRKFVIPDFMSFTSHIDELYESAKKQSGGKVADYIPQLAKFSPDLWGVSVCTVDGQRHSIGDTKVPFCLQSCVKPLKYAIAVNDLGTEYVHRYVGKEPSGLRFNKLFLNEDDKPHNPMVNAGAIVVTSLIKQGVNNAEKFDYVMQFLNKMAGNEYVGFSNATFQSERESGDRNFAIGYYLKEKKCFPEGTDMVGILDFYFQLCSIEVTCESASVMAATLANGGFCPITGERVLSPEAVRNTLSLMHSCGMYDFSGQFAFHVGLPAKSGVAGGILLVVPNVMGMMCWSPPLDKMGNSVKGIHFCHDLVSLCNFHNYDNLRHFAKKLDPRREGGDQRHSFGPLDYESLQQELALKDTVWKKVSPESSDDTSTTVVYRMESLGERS
Test: FRET assay of GAC tetramer formation (488-GAC donor, QSY 9-GAC acceptor)
Format: binding
Settings: for effect on 488-GAC fluorescence emission in equilibrated 488-GAC/QSY 9-GAC mixture: 20 nM 488-GAC and 200 nM QSY 9-GAC
Excerpt: A mouse kidney type glutaminase isoform 1 (KGA, NP_001074550.1, which is hereby incorporated by reference in its entirety (SEQ ID NO:7)) and isoform 2 (GAC, NP_001106854.1, which is hereby incorporated by reference in its entirety (SEQ ID NO:3)) plasmid (residues 72-603 for GAC, 72-674 for KGA) was cloned into a pET23a vector containing an N-terminal histidine (His)-tag and thrombin cleavage site. The expressed protein was initially purified using Co^2+ affinity beads (Clontech), after which the His-tag was cleaved with human thrombin (Haemetologic Technologies) overnight at 4° C. and subsequently purified by anion exchange (GE healthcare) and gel filtration chromatography. Purified GAC or KGA was stored in a high salt containing buffer (20 mM Tris-HCl pH 8.5, 500 mM NaCl, 1 mM NaN3) and stored at −80° C. following snap freezing in liquid N2 for long term use. For labeling recombinant GAC or KGA with small molecule probes, 1.5 mg of enzyme was exchanged to 50 mM HEPES pH 7.2, 100 mM NaCl using a PD10 desalting column (GE healthcare) and incubated with 50 μM (5-fold excess of enzyme) of either ALEXA FLUOR® 488 succinimidyl ester or QSY® 9 succinimidyl ester (Molecular Probes) for 1 hr at 4° C. After 1 hr, the labeling reaction was quenched with 150 mM Tris-HCl pH 8.5 and unreacted probe was separated from labeled-enzyme using a PD10 desalting column eluting labeled-GAC back into the high salt containing buffer.
Fluorescence experiments were performed using a Varian Carry Eclipse Fluorometer in the counting mode. Excitation and emission wavelengths were 490 and 520 nm, respectively. Experiments were all prepared as one-mL samples and stirred continuously at 20° C. in 50 mM Tris-Acetate pH 8.5, 0.1 mM ethylenediaminetetraacetic acid (EDTA). For WT GAC titrations in the absence of inorganic phosphate, 10 nM 488-GAC was equilibrated followed by injection of 25 μL of the appropriate concentration of QSY® 9-GAC and was allowed to equilibrate for 10 minutes at which point 75 μL of the appropriate concentration of unlabeled WT GAC was added to give a concentration that was ten-times that of labeled-GAC (i.e., 10-fold excess). For FRET experiments prepared for inorganic phosphate titrations, a similar protocol was followed whereby 10 nM of 488-GAC was equilibrated with 400 nM QSY® 9-GAC followed by injection of 100 μL of the appropriate concentration of K2HPO4 prepared in 50 mM Tris-Acetate (pH=8.5) 0.1 mM EDTA buffer. To test whether purified mutants can form oligomers with WT GAC, 200 nM QSY® 9-D391K-GAC or 200 nM QSY® 9-K316E-D391K-R459E was added to an equilibrated sample of 20 nM 488-WT GAC. Likewise, when assaying the effects of BPTES and 968 on oligomer formation, BPTES or 968 (10 μM or 25 μM, respectively) was added following equilibration of a sample of 200 nM of QSY® 9-WT GAC and 20 nM 488-WT GAC. Both BPTES and 968 were prepared in DMSO, and appropriate dilutions were made so that less than 2% (v/v) DMSO was added to an experimental sample.

| effect on 488-GAC fluorescence emission in equilibrated 488-GAC/QSY 9-GAC mixture (10 μM BPTES) | reversal of induced tetramers/quenching by excess unlabeled GAC (10 μM BPTES, 10-fold excess unlabeled GAC) | Structure (SMILES) | effect on 488-GAC fluorescence emission in equilibrated 488-GAC/QSY 9-GAC mixture (25 μM 968) |
| --- | --- | --- | --- |
| immediate quenching | stable and not disrupted | O=C(Cc1ccccc1)Nc1nnc(CCSCCc2nnc(NC(=O)Cc3ccccc3)s2)s1 [BPTES] | – |
| – | – | CN(C)c1ccc(C2Nc3ccc4ccccc4c3C3=C2C(=O)CC(C)(C)C3)cc1Br (stereo not drawn) [compound 968] | significant change in the fluorescence emission |

Reference: patent US11046945B2, “Labeled glutaminase proteins, isolated glutaminase protein mutants, methods of use, and kit” (CORNELL UNIVERSITY, priority 2013, dated 2021)
